Measurements taken from ChEMBL document CHEMBL5212743, “Selectivity Literature for EUbOPEN Chemogenomics Library wave 3” (2023).
Values belong to the molecule of their own block, whether it stands above or below them.

Tests used:
[1] = target: Ephrin type-A receptor 4 (Homo sapiens) (UniProt P54764); assay: Selectivity interaction (KinomeScan (DiscoverX)) EUB0000736a EPHA4; details: at 1 µM
[2] = target: Ephrin type-B receptor 3 (Homo sapiens) (UniProt P54753); assay: Selectivity interaction (KinomeScan (DiscoverX)) EUB0000736a EPHB3; details: at 1 µM
Sequence of Ephrin type-B receptor 3 (Homo sapiens) (P54753 whole entry): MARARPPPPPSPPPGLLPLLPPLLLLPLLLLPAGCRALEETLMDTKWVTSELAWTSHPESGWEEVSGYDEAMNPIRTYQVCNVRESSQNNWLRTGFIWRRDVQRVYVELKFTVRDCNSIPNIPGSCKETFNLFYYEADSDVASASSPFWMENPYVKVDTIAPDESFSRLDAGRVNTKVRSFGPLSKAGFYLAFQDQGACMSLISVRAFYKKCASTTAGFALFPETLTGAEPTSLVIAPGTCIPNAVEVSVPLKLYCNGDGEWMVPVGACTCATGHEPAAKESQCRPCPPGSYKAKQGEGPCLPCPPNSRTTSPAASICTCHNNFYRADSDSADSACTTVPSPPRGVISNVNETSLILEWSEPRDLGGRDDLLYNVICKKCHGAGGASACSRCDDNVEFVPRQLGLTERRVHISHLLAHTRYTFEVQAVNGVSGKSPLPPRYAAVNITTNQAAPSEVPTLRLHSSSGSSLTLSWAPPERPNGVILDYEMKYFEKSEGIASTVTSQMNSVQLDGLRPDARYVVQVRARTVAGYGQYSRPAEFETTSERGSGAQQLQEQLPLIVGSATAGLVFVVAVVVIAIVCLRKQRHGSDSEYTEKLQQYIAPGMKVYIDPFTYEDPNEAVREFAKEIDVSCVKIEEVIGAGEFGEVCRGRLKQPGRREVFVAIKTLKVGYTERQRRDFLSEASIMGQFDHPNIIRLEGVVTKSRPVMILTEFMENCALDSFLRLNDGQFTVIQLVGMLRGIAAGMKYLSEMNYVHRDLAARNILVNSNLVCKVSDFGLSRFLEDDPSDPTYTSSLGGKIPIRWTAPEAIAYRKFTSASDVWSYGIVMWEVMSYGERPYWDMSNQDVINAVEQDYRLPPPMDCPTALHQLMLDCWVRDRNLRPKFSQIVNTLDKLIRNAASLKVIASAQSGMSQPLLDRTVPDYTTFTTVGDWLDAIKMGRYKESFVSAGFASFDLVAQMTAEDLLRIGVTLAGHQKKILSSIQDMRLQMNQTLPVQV

[3] = target: Ephrin type-A receptor 6 (Homo sapiens) (UniProt Q9UF33); assay: Selectivity interaction (KinomeScan (DiscoverX)) EUB0000736a EPHA6; details: at 1 µM
[4] = target: Dual specificity tyrosine-phosphorylation-regulated kinase 1B (Homo sapiens, UniProt Q9Y463); assay: Selectivity interaction (KinomeScan (DiscoverX)) EUB0000736a DYRK1B; details: at 1 µM
[5] = tested on: Tyrosine-protein kinase ABL1 (Homo sapiens), P00519 [M351T]; assay: (§1) Selectivity interaction (KinomeScan (DiscoverX)) EUB0000736a ABL1; details: at 1 µM
[6] = tested on: Tyrosine-protein kinase ABL1 (Homo sapiens), P00519 [T315I]; assay: as §1; details: at 10 µM
Histamine H1 receptor = Histamine H1 receptor (Homo sapiens, UniProt P35367); assay: Selectivity interaction (GPCR panel (PDSP screen)) EUB0000350a HRH1; details: at 10 µM
Sequence of Histamine H1 receptor (P35367 whole entry): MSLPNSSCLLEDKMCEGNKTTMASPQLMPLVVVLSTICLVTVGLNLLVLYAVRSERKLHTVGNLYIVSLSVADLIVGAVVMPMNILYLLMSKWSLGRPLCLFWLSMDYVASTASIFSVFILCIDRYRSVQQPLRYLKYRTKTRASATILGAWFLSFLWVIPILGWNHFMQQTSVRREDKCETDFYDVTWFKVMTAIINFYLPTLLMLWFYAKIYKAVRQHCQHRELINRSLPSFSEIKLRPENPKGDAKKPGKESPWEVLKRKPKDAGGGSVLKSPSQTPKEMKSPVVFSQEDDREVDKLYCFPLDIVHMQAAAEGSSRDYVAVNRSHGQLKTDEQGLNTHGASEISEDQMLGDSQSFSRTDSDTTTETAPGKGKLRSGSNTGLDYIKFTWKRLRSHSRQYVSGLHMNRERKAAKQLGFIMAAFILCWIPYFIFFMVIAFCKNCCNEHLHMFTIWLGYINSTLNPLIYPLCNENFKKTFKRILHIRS

[7] = target: Platelet-derived growth factor receptor beta (Homo sapiens, UniProt P09619); assay: Selectivity interaction (KinomeScan (DiscoverX)) EUB0000634a PDGFRB; details: at 1 µM
[8] = target: Mast/stem cell growth factor receptor Kit (Homo sapiens, UniProt P10721); assay: Selectivity interaction (KinomeScan (DiscoverX)) EUB0000634a KIT; details: at 1 µM
Sequence of Mast/stem cell growth factor receptor Kit (P10721 whole entry): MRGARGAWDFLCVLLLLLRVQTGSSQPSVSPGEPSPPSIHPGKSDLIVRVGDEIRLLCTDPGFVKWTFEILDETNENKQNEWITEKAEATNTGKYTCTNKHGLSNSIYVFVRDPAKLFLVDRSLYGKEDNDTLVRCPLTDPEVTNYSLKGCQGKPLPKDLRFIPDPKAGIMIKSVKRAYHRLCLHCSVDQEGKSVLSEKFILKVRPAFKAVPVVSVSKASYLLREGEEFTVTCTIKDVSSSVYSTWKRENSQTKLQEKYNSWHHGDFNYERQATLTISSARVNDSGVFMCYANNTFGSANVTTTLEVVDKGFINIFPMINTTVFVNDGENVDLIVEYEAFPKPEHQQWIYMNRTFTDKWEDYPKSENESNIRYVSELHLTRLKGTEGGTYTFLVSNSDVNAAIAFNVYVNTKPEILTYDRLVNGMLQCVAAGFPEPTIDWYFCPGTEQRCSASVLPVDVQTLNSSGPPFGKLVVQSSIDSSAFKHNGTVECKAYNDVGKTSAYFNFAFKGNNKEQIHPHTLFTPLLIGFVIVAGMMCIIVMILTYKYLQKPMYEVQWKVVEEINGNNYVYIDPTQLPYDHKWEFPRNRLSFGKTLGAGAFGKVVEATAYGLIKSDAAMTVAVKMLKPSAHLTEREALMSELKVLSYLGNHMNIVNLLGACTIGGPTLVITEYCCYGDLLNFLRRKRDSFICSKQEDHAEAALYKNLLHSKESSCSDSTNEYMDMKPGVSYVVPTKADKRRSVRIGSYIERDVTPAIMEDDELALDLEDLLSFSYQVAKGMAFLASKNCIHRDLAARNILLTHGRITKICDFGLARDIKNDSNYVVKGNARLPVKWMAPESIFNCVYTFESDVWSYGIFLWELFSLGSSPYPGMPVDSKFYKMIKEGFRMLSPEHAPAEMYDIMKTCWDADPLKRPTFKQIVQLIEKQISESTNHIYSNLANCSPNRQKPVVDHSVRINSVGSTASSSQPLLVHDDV

[9] = target: Mitogen-activated protein kinase 9 (Homo sapiens, UniProt P45984); assay: Selectivity interaction (KinomeScan (DiscoverX)) EUB0000634a MAPK9; details: at 1 µM
[10] = target: T1, Myosin-IIIb (Homo sapiens) (UniProt Q8WXR4); assay: Selectivity interaction (KinomeScan (DiscoverX)) EUB0000339a MYO3B; details: at 1 µM
T1 sequence (whole entry): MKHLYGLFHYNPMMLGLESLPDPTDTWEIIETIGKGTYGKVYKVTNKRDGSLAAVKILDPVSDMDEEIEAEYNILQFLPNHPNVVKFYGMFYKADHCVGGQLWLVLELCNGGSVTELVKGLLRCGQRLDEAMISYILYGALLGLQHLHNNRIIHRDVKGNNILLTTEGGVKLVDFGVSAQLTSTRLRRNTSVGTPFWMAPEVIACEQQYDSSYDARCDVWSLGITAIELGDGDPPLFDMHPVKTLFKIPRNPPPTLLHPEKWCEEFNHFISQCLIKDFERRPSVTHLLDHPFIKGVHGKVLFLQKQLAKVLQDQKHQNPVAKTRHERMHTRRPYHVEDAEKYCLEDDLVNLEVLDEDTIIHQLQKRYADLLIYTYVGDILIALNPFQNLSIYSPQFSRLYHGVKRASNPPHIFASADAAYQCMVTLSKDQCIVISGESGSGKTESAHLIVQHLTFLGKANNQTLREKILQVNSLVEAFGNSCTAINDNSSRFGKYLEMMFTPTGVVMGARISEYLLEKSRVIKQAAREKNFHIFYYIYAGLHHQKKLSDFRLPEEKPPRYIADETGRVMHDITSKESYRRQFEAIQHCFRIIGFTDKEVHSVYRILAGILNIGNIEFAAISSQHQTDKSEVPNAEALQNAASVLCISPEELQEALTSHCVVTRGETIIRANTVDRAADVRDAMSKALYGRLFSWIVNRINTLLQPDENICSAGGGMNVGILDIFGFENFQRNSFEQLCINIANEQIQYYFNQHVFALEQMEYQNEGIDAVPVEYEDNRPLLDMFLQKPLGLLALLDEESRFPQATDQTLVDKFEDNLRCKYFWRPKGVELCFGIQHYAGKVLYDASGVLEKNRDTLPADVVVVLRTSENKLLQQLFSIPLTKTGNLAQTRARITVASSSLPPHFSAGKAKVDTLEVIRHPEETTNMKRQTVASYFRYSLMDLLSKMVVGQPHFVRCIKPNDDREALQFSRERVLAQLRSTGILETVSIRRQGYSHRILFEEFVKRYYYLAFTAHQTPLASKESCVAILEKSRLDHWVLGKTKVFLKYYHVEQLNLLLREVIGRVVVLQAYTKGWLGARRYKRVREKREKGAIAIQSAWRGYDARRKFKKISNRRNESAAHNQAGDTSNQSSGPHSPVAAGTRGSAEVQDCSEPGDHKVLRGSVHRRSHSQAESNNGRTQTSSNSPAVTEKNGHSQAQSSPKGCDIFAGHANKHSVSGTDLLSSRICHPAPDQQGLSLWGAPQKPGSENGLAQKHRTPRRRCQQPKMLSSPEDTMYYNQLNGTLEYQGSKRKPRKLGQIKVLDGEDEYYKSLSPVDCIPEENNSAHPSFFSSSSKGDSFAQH

[11] = target: Serine/threonine-protein kinase Nek5 (Homo sapiens) (UniProt Q6P3R8); assay: Selectivity interaction (KinomeScan (DiscoverX)) EUB0000339a NEK5; details: at 1 µM
Sequence of Serine/threonine-protein kinase Nek5 (Homo sapiens) (Q6P3R8 whole entry): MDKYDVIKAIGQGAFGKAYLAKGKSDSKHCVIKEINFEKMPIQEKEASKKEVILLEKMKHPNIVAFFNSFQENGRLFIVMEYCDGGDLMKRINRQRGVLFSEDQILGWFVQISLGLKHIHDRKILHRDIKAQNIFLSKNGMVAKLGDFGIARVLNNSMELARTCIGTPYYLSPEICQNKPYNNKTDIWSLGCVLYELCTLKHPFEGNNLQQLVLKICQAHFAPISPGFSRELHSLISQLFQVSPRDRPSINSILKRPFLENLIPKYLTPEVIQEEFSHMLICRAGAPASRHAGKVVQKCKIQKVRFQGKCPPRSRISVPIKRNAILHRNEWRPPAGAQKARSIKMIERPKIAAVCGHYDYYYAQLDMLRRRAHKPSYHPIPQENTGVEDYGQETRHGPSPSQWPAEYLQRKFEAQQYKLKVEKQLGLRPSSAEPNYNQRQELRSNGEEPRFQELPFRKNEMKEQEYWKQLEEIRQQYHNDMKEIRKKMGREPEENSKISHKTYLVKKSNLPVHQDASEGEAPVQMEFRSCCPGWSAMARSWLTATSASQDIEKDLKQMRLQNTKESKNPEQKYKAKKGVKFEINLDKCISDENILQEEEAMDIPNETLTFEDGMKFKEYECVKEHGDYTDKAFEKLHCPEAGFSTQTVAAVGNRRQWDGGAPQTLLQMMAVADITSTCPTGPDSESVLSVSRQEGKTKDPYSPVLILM

[12] = target: Receptor-interacting serine/threonine-protein kinase 1 (Homo sapiens) (UniProt Q13546); assay: Selectivity interaction (KinomeScan (DiscoverX)) EUB0000339a RIPK1; details: at 1 µM
[13] = target: SRSF protein kinase 2 (Homo sapiens) (UniProt P78362); assay: Selectivity interaction (KinomeScan (DiscoverX)) EUB0000332a SRPK2; details: at 1 µM
[14] = target: Maternal embryonic leucine zipper kinase (Homo sapiens) (UniProt Q14680); assay: Selectivity interaction (KinomeScan (DiscoverX)) EUB0000332a MELK; details: at 1 µM
[15] = target: T2, G protein-coupled receptor kinase 3 (Homo sapiens) (UniProt P35626); assay: Selectivity interaction (KinomeScan (DiscoverX)) EUB0000332a ADRBK2; details: at 1 µM
T2 sequence (whole entry): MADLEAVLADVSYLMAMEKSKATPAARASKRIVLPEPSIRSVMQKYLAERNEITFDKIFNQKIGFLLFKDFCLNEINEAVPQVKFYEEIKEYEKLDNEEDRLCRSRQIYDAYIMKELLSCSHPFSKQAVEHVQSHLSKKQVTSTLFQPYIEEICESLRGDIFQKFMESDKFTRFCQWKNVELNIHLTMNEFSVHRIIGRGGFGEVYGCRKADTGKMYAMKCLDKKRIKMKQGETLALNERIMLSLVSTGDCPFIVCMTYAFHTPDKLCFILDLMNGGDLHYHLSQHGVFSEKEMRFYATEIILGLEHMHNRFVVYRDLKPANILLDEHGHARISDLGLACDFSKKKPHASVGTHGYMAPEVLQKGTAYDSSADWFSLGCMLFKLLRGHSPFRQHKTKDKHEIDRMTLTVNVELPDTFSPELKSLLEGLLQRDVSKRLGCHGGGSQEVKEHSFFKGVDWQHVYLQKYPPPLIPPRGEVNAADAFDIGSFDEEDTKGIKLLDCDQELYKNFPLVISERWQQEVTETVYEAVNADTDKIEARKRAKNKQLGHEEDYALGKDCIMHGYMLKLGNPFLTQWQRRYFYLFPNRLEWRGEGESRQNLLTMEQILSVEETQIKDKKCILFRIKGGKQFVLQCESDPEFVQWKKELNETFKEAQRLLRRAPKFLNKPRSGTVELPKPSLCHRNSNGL

[16] = target: Megakaryocyte-associated tyrosine-protein kinase (Homo sapiens) (UniProt P42679); assay: Selectivity interaction (KinomeScan (DiscoverX)) EUB0000332a MATK; details: at 1 µM
[17] = target: T3, Homeodomain-interacting protein kinase 4 (Homo sapiens) (UniProt Q8NE63); assay: Selectivity interaction (KinomeScan (DiscoverX)) EUB0000263b HIPK4; details: at 1 µM
T3 sequence (whole entry): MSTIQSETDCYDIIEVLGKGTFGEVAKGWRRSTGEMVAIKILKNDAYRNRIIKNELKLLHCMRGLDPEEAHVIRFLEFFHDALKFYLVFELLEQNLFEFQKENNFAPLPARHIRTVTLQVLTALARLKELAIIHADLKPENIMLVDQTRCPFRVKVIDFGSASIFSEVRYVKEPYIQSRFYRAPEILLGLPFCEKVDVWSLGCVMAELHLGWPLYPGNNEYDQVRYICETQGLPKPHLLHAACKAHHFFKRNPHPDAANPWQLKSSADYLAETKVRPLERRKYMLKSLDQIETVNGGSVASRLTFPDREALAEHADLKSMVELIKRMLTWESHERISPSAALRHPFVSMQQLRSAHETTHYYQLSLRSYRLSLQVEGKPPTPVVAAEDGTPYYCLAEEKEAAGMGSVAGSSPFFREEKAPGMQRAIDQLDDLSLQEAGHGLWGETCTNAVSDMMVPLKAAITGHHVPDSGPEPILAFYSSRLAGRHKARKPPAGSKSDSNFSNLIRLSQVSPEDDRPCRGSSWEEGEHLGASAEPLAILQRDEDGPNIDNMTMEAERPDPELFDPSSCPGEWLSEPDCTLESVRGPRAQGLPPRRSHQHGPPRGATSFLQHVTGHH

[18] = target: T4, Mitogen-activated protein kinase 12 (Homo sapiens) (UniProt P53778); assay: Selectivity interaction (KinomeScan (DiscoverX)) EUB0000263b MAPK12; details: at 1 µM
T4 sequence (whole entry): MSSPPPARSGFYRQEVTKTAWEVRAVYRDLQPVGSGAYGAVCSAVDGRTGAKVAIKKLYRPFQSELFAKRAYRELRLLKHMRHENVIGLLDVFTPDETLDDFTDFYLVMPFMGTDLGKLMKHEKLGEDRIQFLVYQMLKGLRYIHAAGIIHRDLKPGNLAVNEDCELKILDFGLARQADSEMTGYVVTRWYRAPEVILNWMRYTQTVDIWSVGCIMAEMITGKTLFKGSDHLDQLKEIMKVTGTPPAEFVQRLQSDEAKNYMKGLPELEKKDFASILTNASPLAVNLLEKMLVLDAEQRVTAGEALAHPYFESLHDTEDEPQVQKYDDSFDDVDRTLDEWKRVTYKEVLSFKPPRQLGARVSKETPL

[19] = target: Voltage-dependent L-type calcium channel subunit alpha-1S (Homo sapiens) (UniProt Q13698); assay: Selectivity interaction (Enzyme panel (Eurofins-Cerep)) EUB0000263b CACNA1S; details: at 10 µM
Sequence of Voltage-dependent L-type calcium channel subunit alpha-1S (Homo sapiens) (Q13698 whole entry): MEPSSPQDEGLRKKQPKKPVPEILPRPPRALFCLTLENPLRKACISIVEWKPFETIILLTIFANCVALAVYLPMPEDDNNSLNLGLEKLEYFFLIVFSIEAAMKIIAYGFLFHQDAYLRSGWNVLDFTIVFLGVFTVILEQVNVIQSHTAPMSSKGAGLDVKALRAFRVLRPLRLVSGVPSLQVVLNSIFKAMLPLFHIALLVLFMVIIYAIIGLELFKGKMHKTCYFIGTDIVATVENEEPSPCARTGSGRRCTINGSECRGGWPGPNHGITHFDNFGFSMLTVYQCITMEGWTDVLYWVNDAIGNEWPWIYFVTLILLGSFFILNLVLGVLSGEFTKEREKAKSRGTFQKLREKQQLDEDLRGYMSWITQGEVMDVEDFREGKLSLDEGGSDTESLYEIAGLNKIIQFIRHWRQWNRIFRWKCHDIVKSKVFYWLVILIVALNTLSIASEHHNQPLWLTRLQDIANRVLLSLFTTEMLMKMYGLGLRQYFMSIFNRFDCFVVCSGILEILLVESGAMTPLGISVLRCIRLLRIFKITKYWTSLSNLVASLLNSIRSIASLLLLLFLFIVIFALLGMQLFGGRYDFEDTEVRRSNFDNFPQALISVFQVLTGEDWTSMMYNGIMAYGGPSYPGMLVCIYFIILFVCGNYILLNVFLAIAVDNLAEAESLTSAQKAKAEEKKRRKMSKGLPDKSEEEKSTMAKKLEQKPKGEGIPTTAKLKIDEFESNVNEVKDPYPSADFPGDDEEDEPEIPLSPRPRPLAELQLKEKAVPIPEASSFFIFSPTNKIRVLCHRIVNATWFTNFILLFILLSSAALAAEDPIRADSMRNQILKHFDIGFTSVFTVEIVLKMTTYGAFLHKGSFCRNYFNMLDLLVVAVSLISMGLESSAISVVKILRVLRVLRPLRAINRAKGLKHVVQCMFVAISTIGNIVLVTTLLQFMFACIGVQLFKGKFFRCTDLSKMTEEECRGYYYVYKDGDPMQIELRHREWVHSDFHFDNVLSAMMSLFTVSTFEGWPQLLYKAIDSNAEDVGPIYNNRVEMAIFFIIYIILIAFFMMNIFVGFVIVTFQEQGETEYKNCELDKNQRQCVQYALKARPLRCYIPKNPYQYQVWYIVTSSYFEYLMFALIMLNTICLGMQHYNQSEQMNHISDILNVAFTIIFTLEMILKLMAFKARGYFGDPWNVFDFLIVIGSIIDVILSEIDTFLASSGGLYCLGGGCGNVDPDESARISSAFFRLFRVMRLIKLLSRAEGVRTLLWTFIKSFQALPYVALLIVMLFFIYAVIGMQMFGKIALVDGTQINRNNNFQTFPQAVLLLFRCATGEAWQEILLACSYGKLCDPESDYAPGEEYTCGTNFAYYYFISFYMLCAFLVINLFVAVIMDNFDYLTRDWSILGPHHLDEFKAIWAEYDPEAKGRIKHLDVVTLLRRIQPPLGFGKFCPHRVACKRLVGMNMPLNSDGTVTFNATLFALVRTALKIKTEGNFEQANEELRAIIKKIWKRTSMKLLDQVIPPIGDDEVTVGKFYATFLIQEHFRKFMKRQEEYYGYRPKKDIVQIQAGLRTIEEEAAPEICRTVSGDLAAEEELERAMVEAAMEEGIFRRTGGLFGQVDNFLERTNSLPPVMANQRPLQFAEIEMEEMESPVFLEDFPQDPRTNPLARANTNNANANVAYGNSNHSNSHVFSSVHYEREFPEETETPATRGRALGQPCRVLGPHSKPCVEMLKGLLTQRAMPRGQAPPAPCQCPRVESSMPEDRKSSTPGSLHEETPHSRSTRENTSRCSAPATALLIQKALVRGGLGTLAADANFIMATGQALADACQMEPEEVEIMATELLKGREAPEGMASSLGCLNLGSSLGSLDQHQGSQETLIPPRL

[20] = target: Voltage-dependent L-type calcium channel subunit alpha-1S (Homo sapiens) (UniProt Q13698); assay: Selectivity interaction (CEREP panel (Eurofins)) EUB0000263b CACNA1S; details: at 10 µM

Structure (SMILES): Cn1cncc1[C@@](O)(COc1ccc(C#N)cc1-c1ccc(OC(F)(F)F)cc1)c1ccc(C#N)cc1
% of control [1]: 12%
% of control [2]: 6%
% of control [3]: 3%
% of control [4]: 38%
% of control [5]: 6.2%
% of control [6]: 6.1%

Structure (SMILES): COc1ccc(Oc2cc(NCCC(F)(F)F)c3ncc(-c4ccc(C(=O)NC5CC5)c(C)c4)n3n2)c(F)c1F
% of control [7]: 0%
% of control [8]: 2%
% of control [9]: 4%

Structure (SMILES): CSc1cccnc1N1CCN(Cc2nc3ccccc3[nH]2)CC1
% of control [13]: 59%
% of control [14]: 46%
% of control [15]: 31%
% of control [16]: 45%

Structure (SMILES): CO[C@H]1CC[C@H](CNc2ccc(S(=O)(=O)NC(=O)c3ccc(N4CCN(CC5=C(c6ccc(Cl)cc6)CC(C)(C)CC5)CC4)cc3Oc3cnc4[nH]ccc4c3)cc2[N+](=O)[O-])CC1
% of control [17]: 4.4%
% of control [18]: 47%
% of inhibition [19]: 63.2%
% of inhibition [20]: 63.2%

Second part, the molecule after the results:

% of inhibition (Histamine H1 receptor): 36%
Structure (SMILES): CCCOc1ccc([C@H]2[C@H](C(=O)O)[C@@H](c3ccc4c(c3)OCO4)CN2CC(=O)Nc2c(CC)cccc2CC)cc1

% of control [10]: 52%
% of control [11]: 55%
% of control [12]: 55%
Structure (SMILES): CCCOc1ccc([C@@H]2[C@@H](C(=O)O)[C@H](c3ccc4c(c3)OCO4)CN2CC(=O)Nc2c(CC)cccc2CC)cc1
